As a reminder, the IC50 is the concentration that gives 50% inhibition.

Among the data in patent US9120749B2, “Quinoline derivatives and MELK inhibitors containing the same” (ONCOTHERAPY SCIENCE, INC., priority 2010, dated 2015) are IC50 values, retold here.

Read-outs that look alike come from different tables or passages of the source.

One assay concerns DU4475. Nature of the assay: Cell-based assay: anti-proliferative activity, Cell Counting Kit-8, 72 hours (DU4475). Particulars: Homo sapiens, DU-4475, DU4475 cells. Background: Tetrazolium dyes change colour on reduction, which living cells bring about.
Another assay concerns HT-1197 cells. Nature of the assay: Cell-based assay: anti-proliferative activity, Cell Counting Kit-8, 72 hours (HT-1197, negative control without MELK expression). Particulars: Homo sapiens, HT1197, 72 h, HT1197 cells (negative control, no MELK expression), 72 hours. In short, it runs like this: (§1)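 Anti-MELK western blot on crude lysates → MELK status per line. Cells plated 96-well, compound exposure, CCK-8 readout at 72 h; IC50 calculated.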

For the next assay, the system named is T47D cells. Nature of the assay: Cell-based assay: anti-proliferative activity, Cell Counting Kit-8, 72 hours (T47D). The method, boiled down: as §1
The subject of the next assay is A549 cells. Nature of the assay: Cell-based assay: anti-proliferative activity, Cell Counting Kit-8, 72 hours (A549). Particulars: 72 hours. The method, boiled down: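 Cell Counting Kit-8 read-out of A549 growth after 72 hours of inhibitor exposure, cells plated in 96-well format. Values reported as IC50.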
In the next assay the target is MELK (Homo sapiens, UniProt Q14680). Nature of the assay: Kinase assay: MELK activity, phosphorylation of FITC-labeled histone H3 peptide measured by IMAP fluorescence polarization. To be noted: read-out: IC50 (μM) (kinase assay). In kind it is biochemical. The method, boiled down:
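Compounds, serially diluted from 12.5 mM DMSO stocks to 1% final DMSO, were tested with FITC-labeled histone H3 peptide as substrate. The reaction was stopped with progressive binding solution. Fluorescence polarization was read after 0.5 hour at room temperature.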
A general note: Polarisation of emitted light reports the rotation of a fluorescent probe.

Where [1] appears, read: 50 micro-M ATP, FITC-labeled histone H3 peptide substrate, IMAP fluorescence polarization.

MELK, sequence (Q14680 whole entry, looked up): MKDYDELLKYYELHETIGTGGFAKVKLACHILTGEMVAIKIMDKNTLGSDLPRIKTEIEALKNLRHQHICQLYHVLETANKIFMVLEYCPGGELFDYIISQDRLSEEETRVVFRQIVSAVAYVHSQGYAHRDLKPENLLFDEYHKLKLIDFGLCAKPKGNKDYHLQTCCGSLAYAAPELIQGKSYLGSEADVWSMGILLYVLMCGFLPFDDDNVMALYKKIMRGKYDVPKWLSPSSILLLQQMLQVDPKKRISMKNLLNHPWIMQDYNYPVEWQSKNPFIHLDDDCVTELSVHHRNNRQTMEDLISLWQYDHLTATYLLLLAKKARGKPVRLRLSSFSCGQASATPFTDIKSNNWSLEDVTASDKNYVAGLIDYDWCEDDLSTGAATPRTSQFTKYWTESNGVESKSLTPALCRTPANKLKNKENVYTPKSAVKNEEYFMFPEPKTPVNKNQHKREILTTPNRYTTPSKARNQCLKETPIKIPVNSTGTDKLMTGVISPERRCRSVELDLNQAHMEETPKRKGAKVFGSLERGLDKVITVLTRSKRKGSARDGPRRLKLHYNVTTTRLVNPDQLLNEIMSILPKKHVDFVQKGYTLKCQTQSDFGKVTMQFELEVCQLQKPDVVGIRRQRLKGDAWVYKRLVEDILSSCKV

On to `CN1CCN(c2ccc(Nc3c(C(=O)C4CC4)cnc4ccc(-c5cc(Cl)c(O)c(Cl)c5)cc34)cn2)CC1` [Example 472], for which the IC50 worked out at 0.11 µM in the assay with DU4475; 5.7 µM in the assay with HT-1197 cells; 0.3 µM in the assay on T47D cells (Homo sapiens, T47D, 72 h); 0.18 µM in the assay with A549 cells (Homo sapiens, A549, 72 h); 0.023 µM on MELK.
The corresponding values for `CN1CCN(Cc2cccc(-c3c(C(=O)C4CC4)cnc4ccc(-c5cc(Cl)c(O)c(Cl)c5)cc34)c2)CC1` [Example 478, cyclopropyl(6-(3,5-dichloro-4-hydroxyphenyl)-4-(3-((4-methylpiperazin-1-yl)methyl)phenyl)quinolin-3-yl)methanone] are 0.75 µM, 2.9 µM, 0.53 µM, 0.87 µM and 0.0078 µM.
For the compound `CC(=O)c1cnc2ccc(-c3cnc(C#N)nc3)cc2c1N[C@H]1CC[C@H](CN(C)C)CC1` [Example 418], the IC50 in the assay on DU4475 amounted to 0.5 µM; in the assay on HT-1197 cells, 1.4 µM; with T47D cells (Homo sapiens, T47D, 72 h) it was 0.23 µM; in the assay on A549 cells (Homo sapiens, A549, 72 h), 0.95 µM; on MELK (setting [1]), 0.0073 µM.
The corresponding values for `CN(C)Cc1ccc(Nc2c(S(C)(=O)=O)cnc3ccc(-c4cc(Cl)c(O)c(Cl)c4)cc23)cc1` [Example 400, 2,6-dichloro-4-(4-((4-((dimethylamino)methyl)phenyl)amino)-3-(methylsulfonyl)quinolin-6-yl)phenol] are 0.07 µM, 1.8 µM, 0.23 µM, 0.3 µM and 0.0034 µM.
With `O=C(c1cnc2ccc(-c3cc(F)c(O)c(Cl)c3)cc2c1Nc1ccc(Cn2ccnc2)cc1)C1CC1` [Example 489, (4-(4-((1H-imidazol-1-yl)methyl)phenylamino)-6-(3-chloro-5-fluoro-4-hydroxyphenyl)quinolin-3-yl)(cyclopropyl)methanone], the IC50 in the assay on DU4475 stood at 0.97 µM; in the assay on HT-1197 cells, 5.1 µM; in the assay with T47D cells (Homo sapiens, T47D, 72 h), 1.1 µM; in the assay on A549 cells (Homo sapiens, A549, 72 h), 1.4 µM; on MELK, 0.019 µM.
Consider `CN(C)Cc1ccc(Nc2c(C(=O)C3CCCC3)cnc3ccc(-c4cc(F)c(O)c(Cl)c4)cc23)cc1` [Example 388, (6-(3-chloro-5-fluoro-4-hydroxyphenyl)-4-(4-((dimethylamino)methyl)phenylamino)quinolin-3-yl)(cyclopentyl)methanone], for which the IC50 with DU4475 was found to be 0.21 µM; in the assay on HT-1197 cells, 1.5 µM; with T47D cells (Homo sapiens, T47D, 72 h), 0.52 µM; in the assay with A549 cells (Homo sapiens, A549, 72 h), 0.52 µM; on MELK (setting [1]), 0.014 µM.
`CN1CCN(c2ccc(Nc3c(C(=O)C4CC4)cnc4ccc(-c5cc(F)c(O)c(Cl)c5)cc34)cn2)CC1` [Example 471]: the half-inhibitory concentration (IC50) with DU4475 was 0.14 µM; in the assay on HT-1197 cells, 2.8 µM; in the assay with T47D cells (Homo sapiens, T47D, 72 h), 0.14 µM; in the assay with A549 cells (Homo sapiens, A549, 72 h), 0.21 µM; at MELK it was 0.011 µM.
Consider `COc1cc(-c2ccc3ncc(C(=O)C4CC4)c(-c4cnc(N5CCN(C)CC5)nc4)c3c2)cc(Cl)c1O` [Example 475, (6-(3-chloro-4-hydroxy-5-methoxyphenyl)-4-(2-(4-methylpiperazin-1-yl)pyrimidin-5-yl)quinolin-3-yl)(cyclopropyl)methanone], for which the IC50 in the assay with DU4475 came out at 1.9 µM; in the assay with HT-1197 cells, 4.7 µM; in the assay with T47D cells (Homo sapiens, T47D, 72 h) it was 0.53 µM; in the assay with A549 cells (Homo sapiens, A549, 72 h), 0.79 µM; at MELK it was 0.072 µM.
Taken in the same sequence, the figures for `C[S+]([O-])c1cnc2ccc(-c3cc(F)c(O)c(Cl)c3)cc2c1N[C@H]1CC[C@H](N)CC1` (some centres unmarked) [Example 498] were 2.8 µM, 10 µM, 10 µM, 10 µM and 0.046 µM.
Consider `CC(=O)c1cnc2ccc(-c3cc(F)c(O)c(Cl)c3)cc2c1Nc1ccc(N2CCN(C)CC2)nc1` [Example 487, 1-(6-(3-Chloro-5-fluoro-4-hydroxyphenyl)-4-(6-(4-methylpiperazin-1-yl)pyridin-3-ylamino)quinolin-3-yl)ethanone], for which the IC50 in the assay on DU4475 is 0.1 µM; with HT-1197 cells, 1.4 µM; in the assay with T47D cells (72 hours), 0.041 µM; with A549 cells it was 0.088 µM; on MELK, 0.01 µM.
As for `CN(C)Cc1ccc(Nc2c(S(C)(=O)=O)cnc3ccc(-c4cc(F)c(O)c(Cl)c4)cc23)cc1` [Example 399, 2-chloro-4-(4-(4-((dimethylamino)methyl)phenylamino)-3-(methylsulfonyl)quinolin-6-yl)-6-fluorophenol], the IC50 in the assay on DU4475 amounted to 0.16 µM; in the assay with HT-1197 cells it was 1.9 µM; in the assay with T47D cells (Homo sapiens, T47D, 72 h), 0.27 µM; with A549 cells (Homo sapiens, A549, 72 h), 0.47 µM; on MELK (setting [1]) it was 0.016 µM.
In the case of `COc1cc(-c2ccc3ncc(C(=O)C(C)C)c(N[C@H]4CC[C@H](N)CC4)c3c2)cc(Cl)c1O` [Example 502, 1-(4-((trans-4-aminocyclohexyl)amino)-6-(3-chloro-4-hydroxy-5-methoxyphenyl)quinolin-3-yl)-2-methylpropan-1-one], the IC50 in the assay on DU4475 was found to be 0.041 µM; in the assay on HT-1197 cells it was 0.31 µM; in the assay with T47D cells (Homo sapiens, T47D, 72 h), 0.045 µM; in the assay with A549 cells (Homo sapiens, A549, 72 h), 0.1 µM; on MELK, 0.007 µM.
On to `COc1cc(-c2ccc3ncc(C(=O)C4CC4)c(N[C@H]4CC[C@H](CN)CC4)c3c2)cc(Cl)c1O` [Example 493, {4-[trans-4-(Aminomethyl)cyclohexylamino]-6-(3-chloro-4-hydroxy-5-methoxyphenyl)quinolin-3-yl}(cyclopropyl)methanone], for which the IC50 was determined as 0.068 µM with DU4475; 0.82 µM with HT-1197 cells; 0.078 µM in the assay with T47D cells (Homo sapiens, T47D, 72 h); 0.095 µM in the assay on A549 cells (Homo sapiens, A549, 72 h); 0.003 µM at MELK.
Consider `COc1cc(-c2ccc3ncc(C(=O)C4CC4)c(Nc4ccc(Cn5ccnc5)cc4)c3c2)cc(Cl)c1O` [Example 490, (4-(4-((1H-imidazol-1-yl)methyl)phenylamino)-6-(3-chloro-4-hydroxy-5-methoxyphenyl)quinolin-3-yl)(cyclopropyl)methanone], for which the IC50 in the assay with DU4475 stood at 0.86 µM; in the assay with HT-1197 cells, 5.8 µM; in the assay on T47D cells (Homo sapiens, T47D, 72 h), 0.78 µM; in the assay on A549 cells (Homo sapiens, A549, 72 h), 0.68 µM; on MELK it was 0.014 µM.
The corresponding values for `CN1CCN(c2ncc(-c3c(C(=O)C4CC4)cnc4ccc(-c5cc(Cl)c(O)c(Cl)c5)cc34)cn2)CC1` [Example 479, cyclopropyl(6-(3,5-dichloro-4-hydroxyphenyl)-4-(2-(4-methylpiperazin-1-yl)pyrimidin-5-yl)quinolin-3-yl)methanone] are 1.7 µM, 7.9 µM, 0.92 µM, 1.7 µM and 0.04 µM.
The corresponding values for `CC(=O)c1cnc2ccc(-c3cc(F)c(O)c(Cl)c3)cc2c1N1CCN(C(=O)CN(C)C)CC1` [Example 484, 1-(4-(3-acetyl-6-(3-chloro-5-fluoro-4-hydroxyphenyl)quinolin-4-yl)piperazin-1-yl)-2-(dimethylamino)ethanone] are 0.58 µM, 17 µM, 1.1 µM, 3.4 µM and 0.0069 µM.
